In patent US9920037B2, “Diaryl isoxazoline compound” (Elanco Tiergesundheit AG, priority 2014, dated 2018):

Tests used:
[1] = tested on: Lepeophtheirus salmonis copepodids; experiment: Activity in vitro against Lepeophtheirus salmonis at copepodid stage; type: cell-based; details: 0.16 ng/ml sea water; 1 hour contact, then 48 h in untreated sea water
Experimental: Sea lice copepodids were used to seed a 96-well plate containing the test substances to be evaluated for antiparasitic activity. The racemic compound of formula (I) according to the present invention and the racemic compound No. 1.48 according to WO2010/070068, page 47 were tested by serial dilution in order to determine its minimal effective dose (MED). Copepodids were left in contact with each test compound diluted in sea water for 1 hour. They were then incubated in untreated sea water for 48 h. Efficacy against sea lice was then confirmed if no copepodid moved over a period of 80 seconds.

[2] = tested on: adult R. sanguineus ticks; experiment: Activity in vivo against Rhipicephalus sanguineus ticks (dog tick) on rabbits; details: spray application on ears; for threshold concentration where the efficacy drops below 90%: rabbits
Experimental: On day 0, rabbits are treated with the test compound at a given dose by spray application on their ears only. On day +1, the animals are infested on their ears with adult R. sanguineus ticks (sex ratio 1:1). Evaluation of efficacy is performed 24 h, 48 h, and 72 h after infestation by counting the numbers of dead and live ticks recovered from the animals. Efficacy is expressed as comparison with a placebo treated group using the Abbot's formula. Infestations can be repeated at weekly intervals until efficacy drops. The racemic compound of formula (I) according to the present invention and the racemic compound No. 1.48 according to WO2010/070068, page 47 were tested at different concentrations in order to determine the threshold concentration where the efficacy drops below 90%.

[3] = tested on: Rhipicephalus sanguineus nymphs; experiment: Activity in vivo against Rhipicephalus sanguineus nymphs on Mongolian gerbils (spray application); details: 1.0 mg/kg animal biomass, Mongolian gerbils (Meriones unguiculatus)
Experimental: On day 0, gerbils are treated with the respective test compound at a given dose by spray application. On day +1 (+2), the animals are infested with nymphs of R. sanguineus. Ticks are left on the animals until full repletion. Seven days after infestation nymphs dropped off fully engorged are collected and counted. Efficacy in killing is expressed as a tick number reduction in comparison with a placebo treated group, using the Abbot's formula.

[4] = tested on: sea lice Lepeophtheirus salmonis; experiment: Activity in vivo against copepodids (Lepeophtheirus salmonis) on Atlantic salmon, medicated feed; details: Atlantic salmon (Salmo salar L.), medicated feed 1 mg/kg/day for 7 consecutive days; counted 10 days after treatment end
Experimental: The study used two groups of 45 Atlantic salmon (Salmo salar L.), each, with an average weight of 400 g per fish. Fish were challenged with sea lice copepodids Lepeophtheirus salmonis) (Cohort I). When cohort I reached pre-adult stage, all fish were challenged with a second cohort of sea lice copepodids (Cohort II).
Treatment was initiated when sea lice in cohort I became pre-adult/adults and sea lice in cohort II were early chalimus stages:
One group was treated with medicated feed-pellet containing the (S)-enantiomer of the compound of formula (I) at 1 mg/kg/day, during 7 consecutive days. One group was a placebo control group. The medicated pellets were prepared by dry coating commercially available fish feed pellets with a pre-mix containing the (S)-enantiomer of the compound of formula (I) to reach a content of 0.02% (w/w) active ingredient in the fish feed.
Sea lice were counted 10 days after treatment end.

| Compound | efficacy (no copepodid moved over 80 seconds) [1] | efficacy (vs placebo, Abbot's formula) ([2]; 15 mg/m^2, rabbits) | threshold concentration where the efficacy drops below 90% [2] | efficacy (tick number reduction vs placebo, Abbot's formula) [3] | efficacy (sea lice count) [4] | efficacy (vs placebo, Abbot's formula) ([2]; 3 mg/m^2, rabbits) | efficacy (vs placebo, Abbot's formula) ([2]; 7.5 mg/m^2, rabbits) |
| --- | --- | --- | --- | --- | --- | --- | --- |
| C#CCNC(=O)CNC(=O)c1sc(C2=NOC(c3cc(Cl)cc(Cl)c3)(C(F)(F)F)C2)cc1C (racemic) [racemic compound No. 1.48, reference compound] | 0% | 82% | 15 mg/m^2 | 77% |  |  |  |
| C#CCNC(=O)CNC(=O)c1sc(C2=NO[C@@](c3cc(Cl)c(Cl)c(Cl)c3)(C(F)(F)F)C2)cc1C [(S)-enantiomer of the compound of formula (I)] |  |  |  |  | 100% |  |  |
| C#CCNC(=O)CNC(=O)c1sc(C2=NOC(c3cc(Cl)c(Cl)c(Cl)c3)(C(F)(F)F)C2)cc1C (racemic) [racemic compound of formula (I)] | 100% |  | 3 mg/m^2 | 87% |  | 73% | 93% |
